# Measured values reported in patent US5880116A, “Use of celastrol to treat alzheimer's disease” (Neurocal International, priority 1996, dated 1999).
# Key:
# AD patients = conditions: file history of US 5,192,753; cited from earlier work
# [1] = system: patients clinically diagnosed with early AD; conditions: six months; cited from earlier work
# [2] = system: AA rats with experimental adjuvant arthritis; conditions: rat, in vivo; cited from earlier work
# peritoneal macrophages = conditions: dose dependent; cited from earlier work
# [3] = system: rats (psychomotor coordination); experiment: Psychomotor coordination (PMC) in rota-rod apparatus; type: in vivo, rat (female Sprague-Dawley); conditions: for PMC: Psychomotor coordination: N = 6, mean ± SD
# Procedure: (§1) Celastrol or vehicle was administered to rats as described below. Female Sprague-Dawley rats (obtained from Santiago University, Santiago de Compostela, Spain) were about 3 months old and weighed 200-250 g. The animals were maintained under standard conditions at the Euroespes Institute laboratory facilities.
# (§2) The celastrol formulation was purchased in China in the form of pills under the name of "Leigongtengpian." The dose is expressed as the content of celastrol. The celastrol was dissolved in DMSO (35 μg/mL) and then adjusted to the appropriate concentration with 0.9% saline. Doses of 1.4, 7 and 35 μg/kg were administered intraperitoneally (i.p.) in a total injection volume of 2 ml/kg.
# At one hour after treatment, psychomotor coordination (PMC) was evaluated in a rota-rod apparatus (Letica Scientifiic Instruments, Barcelona, Spain) which consists of a roller turning at a constant pre-selected velocity (4-40 rpm) or at an increasing velocity with constant acceleration (for example, from 4 to 40 rpm in 300 seconds), and four digital counters that are stopped when the rat falls from the rod and lowers a pedal. In this test, the animals ran on a rod with constant acceleration until they fell off because they are unable to run at the necessary velocity to maintain equilibrium. Generally, there are two main causes of low performance in this test 1) myorelaxation and 2) balance disorders, as in some vestibular and brain lesions. Improved performance is seen with drugs improving muscular strength, motor coordination and/or balance. Mean running time of five consecutive trials was taken as an index of PMC.
# (§3) Data were statistically analyzed by the ANOVA and the Duncan test for multiple comparisons. Results were expressed as mean ± standard deviation (SD) in tables and as mean ± standard error of […] (SEM) in figures.
# [4] = system: rats (passive avoidance learning); experiment: Passive avoidance behavior (PAB) learning, fixed-ratio maze paradigm; type: in vivo, rat (female Sprague-Dawley); conditions: for Av: number of avoidances during 10 trials / La: mean latency time per trial: N = 6, mean ± SD
# Procedure: as §1, §2
# Two hours after treatment, rats were tested for passive avoidance behavior in a PAB fixed-ratio maze paradigm, in which they learned to stay on a neutral platform (18×18 cm) in order to avoid a continuous electric footshock in the surrounding area during 10 trials (30 seconds each). The inter-trial interval was 30 seconds. The number of complete avoidances during 10 trials (Av; successful trials in which rat remains in the neutral area the entire 30-second period) and the latency per trial (La; time spent in the neutral platform before leaving it in a trial) were taken as learning indices. The number of avoidances represents a yes/no or discontinuous variable reflecting learning ability of the rats. In general, good learners perform more avoidances because they need fewer trials to learn to avoid footshock. Latency is a continuous variable measuring the time the rat is on the neutral platform without receiving footshock. Rats having the best memory or learning capacity spend more time on the neutral area. Therefore, latency is also an index of learning ability. Finally, when a drug increases the number of avoidances and mean trial latency in this paradigm, it means that this drug improves learning and memory function.
# as §3
# splenic lymphocytes = conditions: dose dependent; cited from earlier work
# splenic cells = conditions: cited from earlier work
# [5] = system: rats (psychomotor activity); experiment: Open-field psychomotor activity (PMA, VA, FF) in OUCEM-86 electronic maze; type: in vivo, rat (female Sprague-Dawley); conditions: for PMA: Psychomotor activity: N = 6, mean ± SD, 30 min recording
# Procedure: as §1, §2
# Immediately after injection, the animals were placed in the Osaka University Computerized Electronic Maze system (OUCEM-86, obtained from Bio Medica, Ltd., Osaka, Japan). The system, as previously described by Cacabelos et al (Prog. Med. 7:763-773, 1987), is integrated with the following components: A Programmable Electronic Platform (PEP) which measures 62 cm×62 cm and is equipped with 48 photo beam sensors (OPX-T30) to detect the three-dimensional position (four-footed, two-footed or rearing, and jumping) of the test animal; a Programming Panel (PP) (Model BECM-0064) for paradigm simulation; a Shock Generator Scrambler (SGS)(Model BSG-1065) to apply continuous or discontinuous electric currents to the PEP; a Control Station interface device to automatically computerize behavioral parameters; and a Computerized System (NEC PC-9801F) for data processing and experimental setting.
# Tests were conducted in an open-field paradigm (where the rat can move freely) as previously described (Cacabelos et al. 1987) where psychomotor activity (PMA) was automatically recorded. Total PMA is the sum of horizontal and vertical movements. Horizontal movements are four-footed movements (FF). Vertical activity (VA) includes jumping and rearing (or two-footed) movements. The temporal profile of PMA during the 30 minutes of recording was also studied. PMA, FF and VA were expressed as total inputs/outputs (I/O). In general, increases in PMA, mainly in VA, are observed in situations of stress. A global increase in PMA is also found under treatment with stimulants and in rats with brain cholinergic deficits. Conversely, decreases in PMA are typical of sedative drugs, for instance.
# as §3
# ICR inbred mice = conditions: 1-3 mg/kg i.p. daily; cited from earlier work
# [6] = in words; cited from earlier work
# patients with AD = conditions: a subgroup of patients with AD; cited from earlier work
# agitation and aggression = conditions: in vivo; cited from earlier work
# [7] = 1.4 μg/kg i.p., 2 hours after treatment
# [8] = 7.0 μg/kg i.p., * p < 0.05 vs control (0.0)
smiles,measurement,setting,value
C[C@]12C=CC(=O)C=C1CC[C@@H]1[C@@H]2C(=O)C[C@@]2(C)[C@H]1CC[C@]2(O)C(=O)CO [prednisone],effect in AD patients,AD patients,no effect
COc1ccc2c(c1)c(CC(=O)O)c(C)n2C(=O)c1ccc(Cl)cc1 [indomethacin],ADAS,[1],only slight decrements
same,BNT,[1],slight improvement
same,MMSE,[1],almost no change
same,TT,[1],only slight decrements
CC1=C(O)C(=O)C=C2C1=CC=C1[C@@]2(C)CC[C@@]2(C)[C@@H]3C[C@](C)(C(=O)O)CC[C@]3(C)CC[C@]12C [Celastrol],joint edema,[2],reduced joint edema
same,lipid-peroxidation and free radical formation,[2],inhibition of lipid-peroxidation and free radical formation
same,LPS-induced IL-1 production,peritoneal macrophages,decreased
same,PMC: Psychomotor coordination,"[3]; 1.4 μg/kg i.p., 1 hour after treatment",99.4 ± 19.2 sec/trial
same,"PMC, significance of difference",[3]; 7 μg group,reached significance
same,PMC: Psychomotor coordination,"[3]; 7.0 μg/kg i.p., ** p < 0.01 vs control (0.0)",126.3 ± 37.6 sec/trial
same,PMC: Psychomotor coordination,"[3]; 35.0 μg/kg i.p., 1 hour after treatment",106.5 ± 21.3 sec/trial
same,"PMC (FIG. 14), in words","[3]; 1.4, 7 and 35 μg treatment groups vs no-treatment group",all scored better than the no-treatment group
same,dose of maximum effect on PMC,[3]; i.p.,7 µg/kg
same,Av: number of avoidances during 10 trials,[4]; [7],4.3 ± 2.1 n°
same,La: mean latency time per trial,[4]; [7],18.3 ± 5.2 s
same,"Av, significance of difference",[4]; 7 μg group,reached significance
same,"La, significance of difference",[4]; 7 μg group,reached significance
same,Av: number of avoidances during 10 trials,[4]; [8],5.1 ± 1.8 n°
same,La: mean latency time per trial,[4]; [8],20.3 ± 2.8 s
same,"latency time on the neutral platform (FIG. 16), in words",[4]; 7.0 μg/kg treatment group,learned significantly more quickly to stay on the platform and avoid the shock
same,"La, significance of difference",[4]; 35 μg group,reached significance
same,La: mean latency time per trial,"[4]; 35.0 μg/kg i.p., 2 hours after treatment",18.8 ± 4.6 s
same,Av: number of avoidances during 10 trials,"[4]; 35.0 μg/kg i.p., * p < 0.05 vs control (0.0)",5.0 ± 1.4 n°
same,"numbers of complete avoidances during 10 trials (FIG. 15), in words",[4]; 7 and 35 μg treatment groups vs no-treatment group,scored significantly higher
same,dose of maximum effect on PAB scores,[4]; i.p.,7 µg/kg
same,Con A-induced IL-2 production,splenic lymphocytes,decreased
same,concentration of optimal effects on mitogen-induced splenic cell proliferation,"splenic cells; PHA, Con A, LPS and PWM",0.1 µg/mL
same,"proliferation of splenic cells induced by mitogens PHA, Con A, LPS and PWM",splenic cells; in words,inhibited proliferation
same,"PMA vs untreated group, in words","[5]; 1.4 μg group, significance not reached",higher than for the untreated group
same,PMA: Psychomotor activity,[5]; 1.4 μg/kg i.p.,3011 ± 1185 I/O
same,PMA: Psychomotor activity,[5]; 7.0 μg/kg i.p.,2200 ± 1203 I/O
same,PMA: Psychomotor activity,[5]; 35.0 μg/kg i.p.,1637 ± 796 I/O
same,"four-footed (FF) activity (FIG. 12), in words",[5]; 1.4 and 7 μg groups,improved somewhat
same,"PMA (total activity, FIG. 10), in words",[5]; 1.4 and 7 μg treatment groups,fared somewhat better
same,"vertical activity (VA, FIG. 11), in words",[5]; 1.4 and 7 μg treatment groups vs no-treatment group,fared somewhat better than the no-treatment group
same,"PMA over the thirty minute test interval (FIG. 13), in words",[5]; all treatment groups,a general trend of decreasing activity during the test period
same,dose of maximum effect on PMA,[5]; i.p.,1.4 µg/kg
same,antibody formation,ICR inbred mice,reduced antibody formation very significantly
same,circulating immune complex levels,ICR inbred mice,decreased circulating immune complex levels
same,serum complement,ICR inbred mice,increased serum complement
same,insecticidal activity,[6],insecticidal inert
Nc1c2c(nc3ccccc13)CCCC2 [tacrine],cognitive and functional measures,patients with AD,improvement
CC(C)NCC(O)COc1cccc2ccccc12 (stereo not shown) [Propranolol],agitation and aggression,agitation and aggression,reported to help reduce agitation and aggression
CC(C)NCC(O)COc1cccc2[nH]ccc12 (stereo not shown) [pindolol],agitation and aggression,agitation and aggression,reported to help reduce agitation and aggression
O=C1CC2(CCCC2)CC(=O)N1CCCCN1CCN(c2ncccn2)CC1 [buspirone],agitation and aggression,agitation and aggression,reported to help reduce agitation and aggression
